From patent US20060069132A1, “Azolecarboxamide herbicides” (priority 2004, published 2006)

Columns and labels:
[1] = tested on: common sowthistle; assay: Test E pre-/postemergence herbicide test; format: in vivo, Sonchus oleraceous
From the text: (§1) Seeds of plant species selected from bipinnate beggarticks (Bidens bipinnata L.), hairy beggarticks (Bidens radiata Thuill.), bermudagrass (Cynodon dactylon (L.) Pers.), Surinam grass (Urochloa decumbens (Staph) R. D. Webster, previously named Brachiaria decumbens Stapf), large crabgrass (Digitaria sanguinalis (L.) Scop.), green foxtail (Setaria viridis (L.) P. Beauv.), goosegrass (Eleusine indica (L.) Gaertn.), johnsongrass (Sorghum halepense (L.) Pers.), kochia (Kochia scoparia (L.) Schrad.), pitted morningglory (Ipomoea lacunosa L.), purple nutsedge (Cyperus rotundus L.), common ragweed (Ambrosia elatior L.), mustard (Brassica nigra (L.) W. D. J. Koch), guineagrass (Panicum maximum Jacq.), dallisgrass (Paspalum dilatatum Poir.), barnyardgrass (Echinochloa crus-galli (L). P. Beauv.), southern sandbur (Cenchrus echinatus L.), common sowthistle (Sonchus oleraceous L.), prickly sida (Sida spinosa L.), Italian ryegrass (Lolium multiflorum Lam.), common purslane (Portulaca oleracea L.), broadleaf signalgrass (Brachiaria platyphylla (Griseb.) Nash), common groundsel (Senecio vulgaris L.), common chickweed (Stellaria media (L.) Vill/Cyr.), tropical spiderwort (Commelina benghalensis L.), annual bluegrass (Poa annua L.), downy bromegrass (Bromus tectorum L.), itchgrass (Rottboellia cochinchinensis (L.) L.f.), quackgrass (Elytrigia repens (L.) Nevski), Canada horseweed (Erigeron Canadensis L.), field bindweed (Convolvulus arvensis L.), spotted spurge (Euphorbia maculata L.), common mallow (Malva sylvestris (=s silvestris) L.), and Russian thistle (Salsola kali L. ssp. Ruthenica (Iljin) Soo) were planted and treated preemergence with test chemicals formulated in a non-phytotoxic solvent mixture which included a surfactant.
(§2) At the same time, plants selected from these weed species were treated with postemergence applications of some of the test chemicals formulated in the same manner. Plants ranged in height from 2 to 18 cm (1- to 4-leaf stage) for postemergence treatments. Treated plants and controls were maintained in a greenhouse for 12 to 14 days, after which time all species were compared to controls and visually evaluated. Plant response ratings, summarized in Table E, are based on a scale of 0 to 100 where 0 is no effect and 100 is complete control. A dash (-) response means no test result.

[2] = tested on: downy bromegrass; assay: Test E pre-/postemergence herbicide test; format: in vivo, Bromus tectorum
From the text: as §1, §2

[3] = tested on: green foxtail; assay: Test E pre-/postemergence herbicide test; format: in vivo, Setaria viridis
From the text: as §1, §2

[4] = tested on: common mallow; assay: Test E pre-/postemergence herbicide test; format: in vivo, Malva sylvestris
From the text: as §1, §2

[5] = tested on: field bindweed; assay: Test E pre-/postemergence herbicide test; format: in vivo, Convolvulus arvensis
From the text: as §1, §2

[6] = tested on: soybean; assay: Test C pre-/postemergence herbicide test; format: in vivo, Glycine max
Method in brief: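 Emerged plants at the 1- to 4-leaf stage (2–18 cm), or freshly planted seeds, received test chemicals in a non-phytotoxic solvent mixture with surfactant. Response was visually scored against controls after 12 to 14 days in the greenhouse, on a 0 (no effect) to 100 (complete control) scale.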

[7] = tested on: goosegrass; assay: Test E pre-/postemergence herbicide test; format: in vivo, Eleusine indica
From the text: as §1, §2

[8] = tested on: wild oat; assay: Test C postemergence herbicide test; format: in vivo, Avenafatua
Method in brief: (§3)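 Weeds and wheat were sprayed after emergence, at a height of 2 to 18 cm (1–4 leaves), and paddy barnyardgrass was flooded and treated at two leaves. Assessment took place 12–14 days later in the greenhouse on a 0-to-100 visual control scale. A dash means no result was obtained.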

[9] = tested on: blackgrass; assay: Test C postemergence herbicide test; format: in vivo, Alopecurus myosuroides; conditions: scale 0 to 100; for Plant response rating, Blackgrass: postemergence
Method in brief: as §3

[10] = tested on: downy bromegrass; assay: Test C postemergence herbicide test; format: in vivo, Bromus tectorum
Method in brief: as §3

[11] = tested on: Italian ryegrass; assay: Test C postemergence herbicide test; format: in vivo, Lolium multiflorum
Method in brief: as §3

[12] = Postemergence, 500 g ai/ha, scale 0 to 100
[13] = Postemergence, 250 g ai/ha, scale 0 to 100
[14] = Preemergence, 62 g ai/ha, scale 0 to 100
[15] = Preemergence, 125 g ai/ha, scale 0 to 100
[16] = Preemergence, 250 g ai/ha, scale 0 (no effect) to 100 (complete control)
[17] = Preemergence, 500 g ai/ha, scale 0 (no effect) to 100 (complete control)
[18] = postemergence, 125 g ai/ha, scale 0 to 100
[19] = postemergence, 62 g ai/ha, scale 0 to 100
[20] = 62 g ai/ha, preemergence, scale 0 to 100
[21] = 250 g ai/ha, scale 0-100, preemergence
[22] = 500 g ai/ha, scale 0 to 100 (0 no effect, 100 complete control), visual, 12 to 14 days, preemergence
[23] = Postemergence, 250 g ai/ha, scale 0 to 100, 0 no effect, 100 complete control

CCc1nn(C(C)(C)C)cc1C(=O)Nc1cc(C(=O)N(C)C)ccc1F [Compound 222, N-[5-[(dimethylamino)carbonyl]-2-fluorophenyl]-1-(1,1-dimethylethyl)-3-ethyl-1H-pyrazole-4-carboxamide]
Plant response rating, Sowthistle [1, 12]: 100
Plant response rating, Sowthistle [1, 13]: 100
Plant response rating, Sowthistle [1, 14]: 75
Plant response rating, Sowthistle [1, 15]: 90
Plant response rating, Sowthistle [1, 16]: 90
Plant response rating, Sowthistle [1, 17]: 95
Plant response rating, Sowthistle [1, 18]: 60
Plant response rating, Sowthistle [1, 19]: 20
Plant response rating, Bromegrass, Downy [2, 13]: 80
Plant response rating, Bromegrass, Downy [2, 14]: 30
Plant response rating, Bromegrass, Downy [2, 15]: 90
Plant response rating, Bromegrass, Downy [2, 16]: 90
Plant response rating, Bromegrass, Downy [2, 17]: 100
Plant response rating, Bromegrass, Downy [2, 18]: 50
Plant response rating, Bromegrass, Downy [2, 19]: 10
Plant response rating, Foxtail, Green [3, 13]: 80
Plant response rating, Foxtail, Green [3, 14]: 10
Plant response rating, Foxtail, Green [3, 15]: 50
Plant response rating, Foxtail, Green [3, 16]: 100
Plant response rating, Foxtail, Green [3, 17]: 100
Plant response rating, Foxtail, Green [3, 18]: 40
Plant response rating, Foxtail, Green [3, 19]: 10
Plant response rating, Mallow [4, 13]: 60
Plant response rating, Mallow [4, 14]: 70
Plant response rating, Mallow [4, 15]: 80
Plant response rating, Mallow [4, 16]: 95
Plant response rating, Mallow [4, 17]: 95
Plant response rating, Mallow [4, 18]: 60
Plant response rating, Mallow [4, 19]: 50
Plant response rating, Bindweed, Field [5, 13]: 95
Plant response rating, Bindweed, Field [5, 15]: 40
Plant response rating, Bindweed, Field [5, 16]: 95
Plant response rating, Bindweed, Field [5, 17]: 95
Plant response rating, Bindweed, Field [5, 18]: 75
Plant response rating, Bindweed, Field [5, 19]: 60
plant injury at 62 g/ha ([6]; Glycine max, pre-emergence, 62 g ai/ha, preemergence, scale 0 to 100, read-out: Plant response rating, Soybean): 40%
plant injury at 250 g/ha ([6]; Glycine max, pre-emergence, 250 g ai/ha, scale 0-100, read-out: Plant response rating, Soybean): 100%
plant injury at 500 g/ha ([6]; Glycine max, pre-emergence, 500 g ai/ha, scale 0 to 100 (0 no effect, 100 complete control), visual, 12 to 14 days, read-out: Plant response rating, Soybean): 100%
Plant response rating, Goosegrass [7, 12]: 90
Plant response rating, Goosegrass [7, 13]: 90
Plant response rating, Goosegrass [7, 14]: 60
Plant response rating, Goosegrass [7, 15]: 75
Plant response rating, Goosegrass [7, 16]: 90
Plant response rating, Goosegrass [7, 17]: 95
Plant response rating, Goosegrass [7, 18]: 75
Plant response rating, Goosegrass [7, 19]: 60

CCc1nn(C(C)C)nc1C(=O)Nc1cccc(C(=O)N(C)CC)c1 [Compound 386]
Plant response rating, Sowthistle [1, 15]: 60
Plant response rating, Sowthistle [1, 16]: 100
Plant response rating, Bromegrass, Downy [2, 15]: 10
Plant response rating, Bromegrass, Downy [2, 16]: 40
Plant response rating, Foxtail, Green [3, 15]: 60
Plant response rating, Foxtail, Green [3, 16]: 95
Plant response rating, Mallow [4, 15]: 60
Plant response rating, Mallow [4, 16]: 70
Plant response rating, Bindweed, Field [5, 15]: 20
Plant response rating, Bindweed, Field [5, 16]: 60
Plant response rating, Soybean [6, 20]: 90
Plant response rating (0 = no effect, 100 = complete control), Soybean ([6]; 125 g ai/ha, preemergence): 90
Plant response rating, Soybean [6, 21]: 95
Plant response rating, Soybean [6, 22]: 95
Plant response rating, Goosegrass [7, 15]: 80
Plant response rating, Goosegrass [7, 16]: 95

CCn1nc(C(C)(C)C)cc1C(=O)Nc1cccc(C(=O)NCC2CC2)c1 [Compound 62]
Plant response rating, Oat, Wild [8, 23]: 50
Plant response rating, Oat, Wild [8, 18]: 40
Plant response rating, Oat, Wild [8, 19]: 30
Blackgrass plant response rating ([9]; Postemergence, 250 g ai/ha): 40
Plant response rating, Blackgrass ([9]; 125 g ai/ha): 40
Plant response rating, Blackgrass ([9]; 31 g ai/ha): 20
Plant response rating, Blackgrass ([9]; 62 g ai/ha): 40
Plant response rating, Bromegrass, Downy [10, 23]: 30
Plant response rating, Bromegrass, Downy [10, 18]: 20
Plant response rating, Bromegrass, Downy ([10]; postemergence, 31 g ai/ha, scale 0 to 100): 10
Plant response rating, Bromegrass, Downy [10, 19]: 20
Plant response rating, Soybean ([6]; 31 g ai/ha, preemergence, scale 0 to 100): 0
Plant response rating (0 = no effect, 100 = complete control), Soybean ([6]; 62 g ai/ha, preemergence): 0
Plant response rating, Soybean ([6]; 125 g ai/ha, scale 0 (no effect) to 100 (complete control), visual, 12 to 14 days, preemergence): 0
Plant response rating, Soybean ([6]; 250 g ai/ha, scale 0 to 100 (0 no effect, 100 complete control), visual, 12 to 14 days, preemergence): 30
Plant response rating, Ryegrass, Italian [11, 23]: 40
Plant response rating, Ryegrass, Italian [11, 18]: 20
Plant response rating, Ryegrass, Italian [11, 19]: 20

CCc1nn(C(C)C)nc1C(=O)Nc1cccc(C(=O)N2CCCCC2)c1 [Compound 385]
Plant response rating, Sowthistle [1, 15]: 0
Plant response rating, Sowthistle [1, 16]: 60
Plant response rating, Bromegrass, Downy [2, 14]: 10
Plant response rating, Bromegrass, Downy [2, 15]: 10
Plant response rating, Bromegrass, Downy [2, 16]: 20
Plant response rating, Foxtail, Green [3, 14]: 10
Plant response rating, Foxtail, Green [3, 15]: 30
Plant response rating, Foxtail, Green [3, 16]: 60
Plant response rating, Mallow [4, 14]: 10
Plant response rating, Mallow [4, 15]: 10
Plant response rating, Mallow [4, 16]: 20
Plant response rating, Bindweed, Field [5, 14]: 10
Plant response rating, Bindweed, Field [5, 15]: 10
Plant response rating, Bindweed, Field [5, 16]: 20
Plant response rating, Soybean [6, 20]: 25
Plant response rating (0 = no effect, 100 = complete control), Soybean ([6]; 125 g ai/ha, preemergence): 100
Plant response rating, Soybean [6, 21]: 100
Plant response rating, Soybean [6, 22]: 100
Plant response rating, Goosegrass [7, 14]: 20
Plant response rating, Goosegrass [7, 15]: 20
Plant response rating, Goosegrass [7, 16]: 50
